Assay results as given in ChEMBL document CHEMBL5724914, “Linking interpersonal differences in gut microbiota composition and drug biotransformation activity” (2024).

How the values were obtained:
[1] = human gut metagenome, 24 h, 2 µM
[2] = human gut metagenome, 24 h, 2 µM; remark: listed apart in the source
[3] = human gut metagenome, 24 h, 2 µM; remark: listed apart in the source
[4] = human gut metagenome, 24 h, 2 µM; remark: listed apart in the source
[5] = human gut metagenome, 24 h, 2 µM; remark: listed apart in the source
[6] = human gut metagenome, 24 h, 2 µM; remark: listed apart in the source
[7] = (§1) The drug is tested on WLS-220 corresponding to human gut metagenome with ENA study accession number: PRJEB37062 and ENA sample accession number: ERS12561769 for biotransformation under anaerobic condition. The drug concentrations were measured over 9 timepoints collected between 0 and 24 hours of incubation by liquid-chromatography-coupled mass spectrometry (LC–MS); conditions: 2 µM
[8] = human gut metagenome, 24 h, 2 µM; remark: listed apart in the source
[9] = as §1, with “WLS-069” for “WLS-220”, “ERS12561748” for “ERS12561769”; conditions: 2 µM
[10] = human gut metagenome, 24 h, 2 µM; remark: listed apart in the source
[11] = as §1, with “WLS-350” for “WLS-220”, “ERS12561789” for “ERS12561769”; conditions: 2 µM
[12] = as §1, with “WLS-052” for “WLS-220”, “ERS12561747” for “ERS12561769”; conditions: 2 µM
[13] = human gut metagenome, 24 h, 2 µM; remark: listed apart in the source
[14] = human gut metagenome, 24 h, 2 µM; remark: listed apart in the source
[15] = as §1, with “Z-004” for “WLS-220”, “to” for “to human gut”, “ERS12561804” for “ERS12561769”; conditions: 2 µM
[16] = as §1, with “Z-006” for “WLS-220”, “mouse” for “human”, “ERS12561806” for “ERS12561769”; conditions: 2 µM
[17] = as §1, with “Z-022” for “WLS-220”, “mouse” for “human”, “ERS12561821” for “ERS12561769”; conditions: 2 µM
[18] = as §1, with “Z-005” for “WLS-220”, “to” for “to human gut”, “ERS12561805” for “ERS12561769”; conditions: 2 µM
[19] = as §1, with “Z-017” for “WLS-220”, “mouse” for “human”, “ERS12561816” for “ERS12561769”; conditions: 2 µM
Further: call rule not given here.

Row | Bacterial Biotransformation [1] | Bacterial Biotransformation [2] | Bacterial Biotransformation [3] | Bacterial Biotransformation [4] | Bacterial Biotransformation [5] | Bacterial Biotransformation [6] | Bacterial Biotransformation [7] | Bacterial Biotransformation [8] | Bacterial Biotransformation [9] | Bacterial Biotransformation [10] | Bacterial Biotransformation [11] | Bacterial Biotransformation [12] | Bacterial Biotransformation [13] | Bacterial Biotransformation [14] | Bacterial Biotransformation [15] | Bacterial Biotransformation [16] | Bacterial Biotransformation [17] | Bacterial Biotransformation [18] | SMILES | Bacterial Biotransformation [19]
1 | Compound NOT metabolized | Compound NOT metabolized | Compound NOT metabolized | Compound metabolized | Compound NOT metabolized | Compound NOT metabolized | Compound NOT metabolized | Compound NOT metabolized | Compound NOT metabolized | Compound NOT metabolized | Compound NOT metabolized | Compound NOT metabolized | Compound metabolized | Compound NOT metabolized |  |  |  |  | OC(CCN1CCCCC1)(c1ccccc1)C1CC2C=CC1C2 (centres undefined) [BIPERIDEN] | 
2 | Compound NOT metabolized | Compound NOT metabolized | Compound NOT metabolized | Compound NOT metabolized | Compound NOT metabolized | Compound NOT metabolized | Compound NOT metabolized | Compound NOT metabolized | Compound NOT metabolized | Compound NOT metabolized | Compound NOT metabolized | Compound NOT metabolized | Compound metabolized | Compound NOT metabolized | Compound NOT metabolized | Compound NOT metabolized | Compound NOT metabolized | Compound NOT metabolized | Cc1ccc(/C(=C\CN2CCCC2)c2ccccn2)cc1 [TRIPROLIDINE] | 
3 | Compound metabolized | Compound metabolized | Compound metabolized | Compound NOT metabolized | Compound metabolized | Compound metabolized | Compound metabolized | Compound metabolized | Compound metabolized | Compound metabolized | Compound metabolized | Compound metabolized | Compound metabolized | Compound metabolized |  |  |  |  | CN1CCN(CC/C=C2/c3ccccc3Sc3ccc(S(=O)(=O)N(C)C)cc32)CC1 [THIOTHIXENE] | 
4 | Compound NOT metabolized | Compound metabolized | Compound NOT metabolized | Compound NOT metabolized | Compound NOT metabolized | Compound NOT metabolized | Compound NOT metabolized | Compound NOT metabolized | Compound NOT metabolized | Compound NOT metabolized | Compound NOT metabolized | Compound NOT metabolized | Compound NOT metabolized | Compound NOT metabolized | Compound NOT metabolized | Compound NOT metabolized | Compound metabolized | Compound NOT metabolized | CN1C(=O)CC(C)(c2ccccc2)C1=O (centres undefined) [METHSUXIMIDE] | Compound NOT metabolized

Row | SMILES | Bacterial Biotransformation [1] | Bacterial Biotransformation [2] | Bacterial Biotransformation [3] | Bacterial Biotransformation [4] | Bacterial Biotransformation [5] | Bacterial Biotransformation [6] | Bacterial Biotransformation [7] | Bacterial Biotransformation [8] | Bacterial Biotransformation [9] | Bacterial Biotransformation [10] | Bacterial Biotransformation [11] | Bacterial Biotransformation [12] | Bacterial Biotransformation [13] | Bacterial Biotransformation [14] | Bacterial Biotransformation [15] | Bacterial Biotransformation [16] | Bacterial Biotransformation [17] | Bacterial Biotransformation [18] | Bacterial Biotransformation [19]
5 | CN1C(=O)CCS(=O)(=O)C1c1ccc(Cl)cc1 (centres undefined) [CHLORMEZANONE] | Compound NOT metabolized | Compound NOT metabolized | Compound NOT metabolized | Compound NOT metabolized | Compound NOT metabolized | Compound NOT metabolized | Compound NOT metabolized | Compound NOT metabolized | Compound NOT metabolized | Compound NOT metabolized | Compound NOT metabolized | Compound NOT metabolized | Compound NOT metabolized | Compound NOT metabolized | Compound NOT metabolized | Compound NOT metabolized | Compound NOT metabolized | Compound NOT metabolized | Compound NOT metabolized
